Results as given in patent US4189499A, “Lysine 4-allyloxy-3-chlorophenylacetate and method of its preparation” (priority 1979, dated 1980).
Where “and” joins values, the source holds several entries; their conditions need not be identical. Equal values may be shown once. Entries after “also recorded” stand apart in the source; their conditions may differ. Where a name gives a salt, the structure may show the parent alone. Read-outs that look alike come from different tables or passages of the source.

What was measured:
[1] = test system: rabbit dorsal long muscle; assay: Local tolerability after intramuscular injection, muscle removed at 24 hours, irritation by arbitrary scores; type: in vivo; design: scale not given here
Description: Such a tolerability was estimated after injection of equivalent solutions of the various preparations, effected in the rabbit dorsal long muscle, removing muscle 24 hours after injection and estimating the degree of induced irritation through arbitrary scores.

[2] = Stability and hygroscopicity; type: physicochemical; settings: for Stability of the solution: in words; for Hygroscopicity: isolated solid
[3] = intravenous route, prior knowledge; cited from earlier work
[4] = Extent of availability after different routes, intravenous administration as reference; type: in vivo, rabbit; settings: i.v. as reference
Description: (§1) The following pharmacological experimentation was carried out in order to estimate the comparative absorption and bioavailability through various administration routes in rabbits of Alclofenac acid and its lysine salt.

[5] = cited from earlier work
[6] = Pharmacokinetics from plasma levels after oral, rectal and intramuscular administration in rabbits; type: in vivo, rabbit; settings: for Ka / t1/2α / CL/F / k el / Cmax / Vd/F / half-life / Tmax: ± E.S.M.; for CL/F / k el / Cmax / Vd/F / half-life / Tmax: rabbit, plasma; for Cmax: read-out: Cmax; for Vd/F: read-out: Vdβ; for half-life: read-out: t1/2β; for Tmax: read-out: tmax (converted)
Description: as §1

Solubility = type: physicochemical; settings: in words, solvent as stated
pH of aqueous solution = type: physicochemical; settings: aqueous solution as prepared
[7] = General tolerability by route of administration; type: in vivo; settings: intravenous or intramuscular; listed as Mono-ethanolamine solution
[8] = 100 mg/ml (as acid), 0.25 ml injected
[9] = 100 mg/ml (as acid), 0.5 ml injected
[10] = 131 mg/ml (as acid), 0.25 ml injected
[11] = listed as Mono-ethanolamine solution

C=CCOc1ccc(CC(=O)O)cc1Cl [Alclofenac-Methylglucose]
SCORES at 24 hours, Average [1, 8]: 2 | SCORES at 24 hours, Average [1, 9]: 5.4 | SCORES at 24 hours, individual [1, 8]: 0 and 3 (2×) | SCORES at 24 hours, individual [1, 9]: 2 and 5 and 10 and 4.5 | Stability of the solution ([2]; listed as Methylglucamine salt): not very stable | Hygroscopicity ([2]; listed as Methylglucamine salt): very hygroscopic

C=CCOc1ccc(CC(=O)O)cc1Cl [sodic salt of the acid]
tolerability of injection [3]: scarcely tolerated

C=CCOc1ccc(CC(=O)O)cc1Cl [Alclofenac, 4-allyloxy-3-chlorophenylacetic acid, reference compound]
% Availability (AUC o → 4h) ([4]; P.O. 90 mg/kg, 0-4 h, 90 mg/kg, 240 min): 42.4% | % Availability (practical AUC) ([4]; P.O. 90 mg/kg, 90 mg/kg): 84.0% | % Availability (theoretical AUC) ([4]; P.O. 90 mg/kg, 90 mg/kg): 89.2% | % Availability (AUC o → 2h) ([4]; Rectal 100 mg/kg, 0-2 h, 100 mg/kg, 120 min): 83.24% | % Availability (practical AUC) ([4]; Rectal 100 mg/kg, 100 mg/kg): 105.7% | % Availability (theoretical AUC) ([4]; Rectal 100 mg/kg, 100 mg/kg): 87.2% | antiinflammatory properties ([5]; in vivo): antiinflammatory properties | analgesic activity ([5]; versus acetylsalicylic acid): marked analgesic activity, higher than acetylsalicylic acid | Ka ([6]; P.OS 90 mg/kg): 0.0146 ± 0.0018 min⁻¹ | t1/2α ([6]; P.OS 90 mg/kg): 0.85 ± 0.083333 h | Ka ([6]; RECTAL 100 mg/kg): 0.053 ± 0.10 min⁻¹ | t1/2α ([6]; RECTAL 100 mg/kg): 0.233 ± 0.05 h | absorption, in words ([6]; oral and rectal route, rabbits): well absorbed through the oral and rectal route | CL/F ([6]; 100 mg/kg, RECTAL 100 mg/kg): 0.54 ± 0.04 mL/min/kg | k el ([6]; 100 mg/kg, RECTAL 100 mg/kg): 3.83e-05 s⁻¹ | Cmax ([6]; 100 mg/kg, RECTAL 100 mg/kg): 425 ± 11.9 µg/mL | Vd/F ([6]; 100 mg/kg, RECTAL 100 mg/kg): 0.274 ± 0.06 L/kg | half-life ([6]; 100 mg/kg, RECTAL 100 mg/kg): 5.12 ± 0.583 h | Tmax ([6]; 100 mg/kg, RECTAL 100 mg/kg): 1.1 h | CL/F ([6]; po, 90 mg/kg, P.OS 90 mg/kg): 0.64 ± 0.06 mL/min/kg | k el ([6]; po, 90 mg/kg, P.OS 90 mg/kg): 3e-05 s⁻¹ | Cmax ([6]; po, 90 mg/kg, P.OS 90 mg/kg): 358 ± 47.8 µg/mL | Vd/F ([6]; po, 90 mg/kg, P.OS 90 mg/kg): 0.326 ± 0.045 L/kg | half-life ([6]; po, 90 mg/kg, P.OS 90 mg/kg): 6.9 ± 0.667 h | Tmax ([6]; po, 90 mg/kg, P.OS 90 mg/kg): 2.88 h | Solubility (Solubility): insoluble in the physiological fluids; also recorded: insolubility

C=CCOc1ccc(CC(=O)O)cc1Cl [Alclofenac-Arginine]
SCORES at 24 hours, Average [1, 9]: 3.9 | SCORES at 24 hours, Average [1, 10]: 1.6 | SCORES at 24 hours, individual [1, 9]: 6.5 and 2.5 and 3 and 3.5 | SCORES at 24 hours, individual [1, 10]: 1.5 and 3.5 and 3 and 0 | Hygroscopicity ([2]; listed as Arginine salt): non-hygroscopic | pH of solution (pH of aqueous solution; listed as Arginine salt): 7.7 | Solubility (Solubility; listed as Arginine salt): scarcely water soluble

C=CCOc1ccc(CC(=O)O)cc1Cl [Alclofenac-Ethanolamine]
SCORES at 24 hours, Average [1, 8]: 3 | SCORES at 24 hours, individual [1, 8]: 3 and 3.5 and 2.5 | tolerability on injection [7]: poor tolerability | Stability of the solution [2, 11]: stable | pH of solution (pH of aqueous solution; [11]): 7.5
